From patent US9840481B2, “Allosteric modulators of nicotinic acetylcholine receptors” (MERCK SHARP & DOHME CORP., priority 2016, dated 2017)
Read-outs that look alike come from different tables or passages of the source. One block for each molecule: values may come before it.

Target: T1, human α7 nAChR stably expressed in a HEK cell line (with human RIC-3) (Homo sapiens, UniProt P36544)
T1 construct: PrecisION hnAChR α7/RIC-3
Experiment: Automated patch-clamp electrophysiology functional assay (Assay A), IonFlux HT, whole-cell population patch
Type: cell-based
Method: The α7 nAChR positive allosteric modulator (PAM) activity of the present compounds may be tested using assays known in the art. The α7 nAChR PAMs described herein have activities in an automated patch-clamp electrophysiology functional assay as described in the examples. The assay was performed using the IonFlux HT in a whole-cell, population patch configuration. See Golden et al. Assay Drug Dev. Technol. (2011) 9:608-619. The compounds were assessed for their ability to modulate the function of the human α7 nAChR stably expressed in a HEK cell line both in the presence, and in the absence of the natural α7 agonist acetylcholine. By performing a series of such measurements at different concentrations, the effective concentration of the α7 nAChR PAMs (EC50) was determined. See Spencer et al. Assay Drug Dev. Technol. (2012) 10:313-324.
Direct activation of α7 (agonism), and potentiation of 5 acetylcholine-evoked α7 currents was determined as follows:
Automated Patch-Clamp Electrophysiology Functional Assay (Assay A)
Automated patch-clamp electrophysiology was performed using the IonFlux HT (Fluxion Biosciences Inc., San Francisco, Calif.) in the whole-cell, population patch configuration. Test compounds were assessed for their ability to modulate the function of the α7 nicotinic acetylcholine receptor both in the presence, and in the absence of the natural α7 agonist acetylcholine. A HEK cell line stably expressing both human RIC-3 and human α7 (PrecisION hnAChR α7/RIC-3, Eurofins Pharma, St. Charles, Mo.) was cultured in 175 cm^2 triple-layer tissue culture flasks to no more than 90% confluency in DMEM/F-12 growth media supplemented with 10% heat-inactivated fetal bovine serum, 1% non-essential amino acids, 0.625 μg/mL Puromycin, and 400 μg/mL Geneticin. Immediately prior to assay, cells were detached by first aspirating growth media, rinsing with Dulbecco's phosphate buffered saline, and then adding 10 mL of Accutase (Innovative Cell Technologies, San Diego, Calif.) to the flask and then incubating at 37° C. for 5 minutes. Detached cells were then recovered by the addition of 40 mL of CHO-serum-free media supplemented with 25 mM HEPES, and rocked gently in a 50 mL conical tube for 20 minutes prior to patch-clamp assay. After recovery, cells were pelleted by centrifugation at 1,000 RPM for 1 minute in a compact bench top centrifuge; recovery media was aspirated and cells were resuspended in external recording solution (150 mM NaCl, 5 mM KCl, 2 mM CaCl2, 1 mM MgCl2, 10 mM HEPES, 12 mM dextrose) to a density of 5.0×10^6 cells/mL. The cell suspension was added to the cell inlet wells on an IonFlux HT population patch plate which had previously been rinsed and primed with deionized H2O. Test compounds were serially diluted in DMSO and then resuspended to the final test concentration in external recording solution, with, or without […] acetylcholine added to the external recording solution; test compounds were then transferred to the IonFlux HT population patch plate. Internal recording solution (110 mM TrisPO4, 28 mM TrisBase, 0.1 mM CaCl2, 2 mM MgCl2, 11 mM EGTA, 4 mM MgATP) was added to the internal recording solution inlet wells on the IonFlux HT patch plate previously loaded with cells and test compounds, and the plate loaded into the IonFlux HT instrument. A protocol was executed on the IonFlux HT to trap the cells, break into the cells, and establish the whole-cell recording configuration; cells were voltage-clamped at a holding potential of −60 mV for the duration of the experiment, all experiments were conducted at room temperature, and the IonFlux HT injection pressure was 8 psi for solution applications. Upon establishing the whole-cell configuration, external recording solution was perfused into the recording chambers for 120 seconds and then 40 μM acetylcholine was applied for 1 second and immediately washed off with external recording solution for 60 seconds. […]

[1] = automated patch-clamp electrophysiology functional assay (Assay A), potency class by EC50, read-out: α7 nAChR Potency
[2] = electrophysiology EC50, HEK cells expressing human α7/RIC-3, 40 μM acetylcholine, holding potential −60 mV, room temperature, read-out: α7 nAChR EC50

T1 sequence (P36544 23-502): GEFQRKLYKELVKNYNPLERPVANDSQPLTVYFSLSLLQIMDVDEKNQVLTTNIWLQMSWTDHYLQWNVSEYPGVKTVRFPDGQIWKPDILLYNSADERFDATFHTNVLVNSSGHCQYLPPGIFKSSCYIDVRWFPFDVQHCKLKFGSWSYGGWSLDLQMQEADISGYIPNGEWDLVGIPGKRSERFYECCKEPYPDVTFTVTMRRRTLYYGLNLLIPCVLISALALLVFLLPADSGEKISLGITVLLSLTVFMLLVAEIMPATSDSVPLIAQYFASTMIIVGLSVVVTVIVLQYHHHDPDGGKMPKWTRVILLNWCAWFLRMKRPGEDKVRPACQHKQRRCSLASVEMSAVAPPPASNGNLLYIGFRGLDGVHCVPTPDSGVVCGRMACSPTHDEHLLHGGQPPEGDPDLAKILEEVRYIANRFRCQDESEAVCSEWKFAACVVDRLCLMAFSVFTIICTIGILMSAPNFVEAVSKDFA

SMILES: CC1(C)C(c2ccc(OS(N)(=O)=O)cc2)C1c1nc(-c2ccccc2)no1 (stereo not drawn) [Example 30, 4-[trans-2,2-Dimethyl-3-(3-phenyl-1,2,4-oxadiazol-5-yl)cyclopropyl]phenyl sulfamate]
EC50 [1]: 500 to 5000 nM | EC50 [2]: 1400 nM

SMILES: NS(=O)(=O)c1ccc([C@@H]2C[C@H]2c2nc(-c3cc(F)ccc3C(F)(F)F)no2)cc1 [Example C8]
EC50 [1]: 100 to 500 nM | EC50 [2]: 500 nM

SMILES: NS(=O)(=O)c1ccc(C2CC2c2coc(-c3ccccc3)n2)cc1 (stereo not drawn) [Example 24, 4-[trans-2-(2-Phenyl-1,3-oxazol-4-yl)cyclopropyl]benzenesulfonamide]
EC50 [1]: 500 to 5000 nM | EC50 [2]: 2400 nM

SMILES: NS(=O)(=O)c1ccc([C@@H]2C[C@H]2c2nc(-c3ccccc3F)no2)cc1 [Example C20]
EC50 [1]: 100 to 500 nM

SMILES: NS(=O)(=O)c1ccc([C@@H]2C[C@H]2c2ccn(Cc3cccc(F)c3)n2)cc1 [Example 23, 4-{(1R,2R)-2-[1-(3-Fluorobenzyl)-1H-pyrazol-3-yl]cyclopropyl}benzenesulfonamide]
EC50 [1]: 100 to 500 nM | EC50 [2]: 460 nM

SMILES: CC1(C)[C@H](c2ccc(S(N)(=O)=O)cc2)[C@H]1c1nc(-c2ccc(F)cc2F)no1 [Example A7]
EC50 [1]: 500 to 5000 nM | EC50 [2]: 1300 nM

SMILES: Cc1cccc(-c2noc([C@@H]3C[C@H]3c3ccc(S(N)(=O)=O)cc3)n2)c1 [Example C18]
EC50 [1]: 100 to 500 nM

SMILES: CC1(C)[C@H](c2ccc(S(N)(=O)=O)cc2)[C@H]1c1nc(C2CCOC2)no1 (some centres unmarked) [Example B11]
EC50 [1]: 5000 to 50000 nM | EC50 [2]: 5800 nM

SMILES: CC1(C)[C@@H](c2ccc(S(N)(=O)=O)cc2)[C@@H]1c1noc(-c2c(F)ccc(F)c2F)n1 [Example 3, 4-((1S,3S)-2,2-Dimethyl-3-(5-(2,3,6-trifluorophenyl)-1,2,4-oxadiazol-3-yl)cyclopropyl) benzenesulfonamide]
EC50 [1]: ≤ 100 nM | EC50 [2]: 83 nM

SMILES: COc1ccc(Cl)cc1-c1noc([C@@H]2C[C@H]2c2ccc(S(N)(=O)=O)cc2)n1 [Example 19, 4-{(1R,2R)-2-[3-(5-Chloro-2-methoxyphenyl)-1,2,4-oxadiazol-5-yl]cyclopropyl}benzenesulfonamide]
EC50 [1]: 500 to 5000 nM | EC50 [2]: 780 nM

SMILES: NS(=O)(=O)c1ccc([C@@H]2[C@@H](c3nsc(N4CCCCC4)n3)C2(F)F)cc1 [Example L12]
EC50 [1]: 100 to 500 nM

SMILES: NS(=O)(=O)c1ccc([C@@H]2C[C@H]2c2cnc(-c3ccccc3)s2)cc1 [Example 27, 4-[(1R,2R)-2-(2-Phenyl-1,3-thiazol-5-yl)cyclopropyl]benzenesulfonamide]
EC50 [1]: 500 to 5000 nM | EC50 [2]: 620 nM

SMILES: NS(=O)(=O)c1ccc([C@@H]2C[C@H]2c2cnc(C3CCCC3)o2)cc1 [Example L21]
EC50 [1]: 500 to 5000 nM

SMILES: NS(=O)(=O)c1ccc([C@@H]2[C@@H](c3nc(C4CCC4)no3)C2(F)F)cc1 [Example B18]
EC50 [1]: 500 to 5000 nM | EC50 [2]: 1200 nM

SMILES: CC1(C)[C@H](c2ccc(S(N)(=O)=O)cc2)[C@H]1c1cnc(-c2ccccc2)o1 [Example 10, 4-[(1R,3R)-2,2-Dimethyl-3-(2-phenyl-1,3-oxazol-5-yl)cyclopropyl]benzenesulfonamide]
EC50 [1]: 500 to 5000 nM | EC50 [2]: 1200 nM

SMILES: CC1(C)[C@@H](c2ccc(S(N)(=O)=O)cc2)[C@@H]1c1noc(CCC2CC2)n1 [Example 2, 4-((1S,3S)-3-(5-(2-Cyclopropylethyl)-1,2,4-oxadiazol-3-yl)-2,2-dimethylcyclopropyl)benzenesulfonamide]
EC50 [1]: 100 to 500 nM

SMILES: CC1(C)[C@@H](c2ccc(S(C)(=O)=O)cc2)[C@@H]1c1nc(-c2ccccc2)no1 (relative stereo) [Example 33]
EC50 [1]: 500 to 5000 nM | EC50 [2]: 1100 nM

SMILES: CC1(C)[C@H](c2ccc(S(N)(=O)=O)cc2)[C@H]1c1cnn(-c2cccc(F)c2)c1 [Example 13, 4-{(1R,3R)-3-[1-(3-Fluorophenyl)-1H-pyrazol-4-yl]-2,2-dimethylcyclopropyl}benzenesulfonamide]
EC50 [1]: 100 to 500 nM | EC50 [2]: 340 nM

SMILES: Cc1sc([C@@H]2C[C@H]2c2ccc(S(N)(=O)=O)cc2)nc1-c1ccccc1 [Example 15, 4-[(1R,2R)-2-(5-Methyl-4-phenyl-1,3-thiazol-2-yl)cyclopropyl]benzenesulfonamide]
EC50 [1]: ≤ 100 nM | EC50 [2]: 71 nM

More lines, now with the values ahead:

EC50 [1]: 500 to 5000 nM
SMILES: CC1(C)[C@@H](c2ccc(S(N)(=O)=O)cc2)[C@@H]1c1nnc(-c2ccccc2C(F)(F)F)o1 [Example G4]

EC50 [1]: 500 to 5000 nM | EC50 [2]: 540 nM
SMILES: CCc1coc([C@H]2[C@H](c3ccc(S(N)(=O)=O)cc3)C2(C)C)n1 [Example K8]

EC50 [1]: 100 to 500 nM
SMILES: CC1(C)[C@H](c2ccc(S(N)(=O)=O)cc2)[C@H]1c1noc(-c2ccccc2)n1 [Example L17]

EC50 [1]: 100 to 500 nM | EC50 [2]: 380 nM
SMILES: CC1(C)[C@@H](c2ccc(S(N)(=O)=O)cc2)[C@@H]1c1nc(-c2ccc(F)cc2F)co1 [Example K3]

EC50 [1]: 100 to 500 nM
SMILES: CC1(C)[C@@H](c2ccc(S(N)(=O)=O)cc2)[C@@H]1c1noc(-c2ccc3nc(O)sc3c2)n1 [Example I32]

EC50 [1]: 100 to 500 nM | EC50 [2]: 430 nM
SMILES: CC(C)c1noc([C@@H]2C[C@H]2c2ccc(S(N)(=O)=O)cc2)n1 [Example D11]

EC50 [1]: 500 to 5000 nM | EC50 [2]: 1200 nM
SMILES: CC1(C)[C@H](c2ccc(S(N)(=O)=O)cc2)[C@H]1c1nc(-c2ccccc2F)co1 [Example J1]

EC50 [1]: 500 to 5000 nM
SMILES: CC1(C)[C@@H](c2ccc(S(N)(=O)=O)cc2)[C@@H]1c1nnc(C2CC2)s1 [Example G15]

EC50 [1]: 500 to 5000 nM
SMILES: CC1(C)[C@H](c2ccc(S(N)(=O)=O)cc2)[C@H]1c1nc(-c2cc(F)ccc2F)co1 [Example J3]

EC50 [1]: 5000 to 50000 nM
SMILES: NS(=O)(=O)c1ccc([C@@H]2C[C@H]2c2nc(-c3ccccc3)c[nH]2)cc1 [Example K12]

EC50 [1]: 500 to 5000 nM
SMILES: CC1(C)[C@@H](c2ccc(S(N)(=O)=O)cc2)[C@@H]1c1noc(-c2ccc(OCCF)nc2)n1 [Example I14]

EC50 [1]: 500 to 5000 nM | EC50 [2]: 740 nM
SMILES: NS(=O)(=O)c1ccc([C@@H]2[C@@H](c3nsc(-c4ccccc4)n3)C2(F)F)cc1 [Example L13]

EC50 [1]: 100 to 500 nM | EC50 [2]: 230 nM
SMILES: NS(=O)(=O)c1ccc([C@@H]2C[C@H]2c2nc(-c3cccnc3C3CC3)no2)cc1 [Example D24]

EC50 [1]: 500 to 5000 nM
SMILES: NS(=O)(=O)c1ccc([C@@H]2C[C@H]2c2cnc(-c3ccccc3)o2)cc1 [Example L3]

EC50 [1]: 500 to 5000 nM | EC50 [2]: 2100 nM
SMILES: NS(=O)(=O)c1ccc([C@@H]2C[C@H]2c2nc(C3(c4ccccc4)CC3)no2)cc1 [Example D23]

EC50 [1]: 500 to 5000 nM
SMILES: NS(=O)(=O)c1ccc([C@@H]2C[C@H]2c2nc(C3CC(F)(F)C3)no2)cc1 [Example D19]

EC50 [1]: 100 to 500 nM
SMILES: NS(=O)(=O)c1ccc([C@@H]2C[C@H]2c2noc(C3CCCCC3)n2)cc1 [Example I34]

EC50 [1]: 100 to 500 nM | EC50 [2]: 130 nM
SMILES: NS(=O)(=O)c1ccc([C@@H]2C[C@H]2c2nc(C3CCCC3)no2)cc1 [Example D21]

EC50 [1]: 500 to 5000 nM
SMILES: Cc1ncoc1-c1noc([C@@H]2C[C@H]2c2ccc(S(N)(=O)=O)cc2)n1 [Example D31]

EC50 [1]: 100 to 500 nM
SMILES: NS(=O)(=O)c1ccc([C@@H]2C[C@H]2c2ncc(-c3cccc(F)c3)s2)cc1 [Example K20]

EC50 [1]: 500 to 5000 nM
SMILES: NS(=O)(=O)c1ccc([C@@H]2C[C@H]2c2csc(C3CCCC3)n2)cc1 [Example L14]

EC50 [1]: ≤ 100 nM | EC50 [2]: 96 nM
SMILES: CC1(C)[C@@H](c2ccc(S(N)(=O)=O)cc2)[C@@H]1c1noc(C2CCc3cc(F)ccc32)n1 (some centres unmarked) [Example I3]

EC50 [1]: 100 to 500 nM | EC50 [2]: 410 nM
SMILES: CC(C)(C)c1noc([C@H]2[C@H](c3ccc(S(N)(=O)=O)cc3)C2(C)C)n1 [Example D10]

EC50 [1]: 5000 to 50000 nM | EC50 [2]: 6000 nM
SMILES: Cc1noc([C@H]2[C@H](c3ccc(S(N)(=O)=O)cc3)C2(C)C)n1 [Example D13]
